In patent publication US9375002B2, “5-aminopyrimidine derivatives and use thereof for combating undesired plant growth” (BAYER INTELLECTUAL PROPERTY GMBH, priority 2012, dated 2016):

Key:
Type in all cases: in vivo
[1] = tested on: Abutilon theophrasti; experiment: Pre-emergence herbicidal effect; conditions: 1280 g/ha, visual assessment after 3 weeks
Text: (§1) 1. Pre-Emergence Herbicidal Effect and Crop Plant Compatibility Seeds of monocotyledonous and dicotyledonous weed plants and crop plants are placed in wood-fiber pots in sandy loam and covered with soil. The inventive compounds, formulated in the form of wettable powders (WP) or as emulsion concentrates (EC), are then applied to the surface of the covering soil as an aqueous suspension or emulsion at a water application rate of 600 to 800 I/ha (converted) with addition of 0.2% wetting agent. After the treatment, the pots are placed in a greenhouse and kept under good growth conditions for the test plants. The damage to the test plants is assessed visually after a test period of 3 weeks by comparison with untreated controls (herbicidal activity in percent (%): 100% action=the plants have died, 0% action=like control plants). ABUTH: Abutilon theophrasti ALOMY: Alopecurus myosuroides

[2] = tested on: Alopecurus myosuroides; experiment: Pre-emergence herbicidal effect; conditions: 1280 g/ha, visual assessment after 3 weeks
Text: as §1

[3] = tested on: Stellaria media; experiment: Pre-emergence herbicidal effect; conditions: 1280 g/ha, visual assessment after 3 weeks
Text: as §1, with “STEME: Stellaria media VERPE: Veronica persica” for “ABUTH: Abutilon theophrasti ALOMY: Alopecurus myosuroides”

[4] = tested on: Veronica persica; experiment: Pre-emergence herbicidal effect; conditions: 1280 g/ha, visual assessment after 3 weeks
Text: as §1, with “STEME: Stellaria media VERPE: Veronica persica” for “ABUTH: Abutilon theophrasti ALOMY: Alopecurus myosuroides”

[5] = tested on: Viola tricolor; experiment: Pre-emergence herbicidal effect; conditions: 1280 g/ha, visual assessment after 3 weeks
Text: as §1, with “VIOTR: Viola tricolor” for “ABUTH: Abutilon theophrasti ALOMY: Alopecurus myosuroides”

[6] = tested on: Amaranthus retroflexus; experiment: Pre-emergence herbicidal effect; conditions: 1280 g/ha, visual assessment after 3 weeks
Text: as §1, with “AMARE: Amaranthus retroflexus ECHCG: Echinochloa crus-galli” for “ABUTH: Abutilon theophrasti ALOMY: Alopecurus myosuroides”

[7] = tested on: Echinochloa crus-galli; experiment: Pre-emergence herbicidal effect; conditions: 1280 g/ha, visual assessment after 3 weeks
Text: as §1, with “AMARE: Amaranthus retroflexus ECHCG: Echinochloa crus-galli” for “ABUTH: Abutilon theophrasti ALOMY: Alopecurus myosuroides”

[8] = tested on: Abutilon theophrasti; experiment: Post-emergence herbicidal effect; conditions: 1280 g/ha, visual rating after about 3 weeks
Description: (§2) ABUTH: Abutilon theophrasti ALOMY: Alopecurus myosuroides 2. Post-Emergence Herbicidal Effect and Crop Plant Compatibility Seeds of monocotyledonous and dicotyledonous weed and crop plants are placed in sandy loam in wood-fiber pots, covered with soil and cultivated in a greenhouse under good growth conditions. 2 to 3 weeks after sowing, the test plants are treated at the one-leaf stage. The compounds according to the invention, formulated in the form of wettable powders (WP) or as emulsion concentrates (EC), are then sprayed as aqueous suspension or emulsion at a water application rate of 600 to 800 I/ha (converted) with the addition of 0.2% of wetting agent onto the green parts of the plants. After the test plants have been kept in the greenhouse under optimum growth conditions for about 3 weeks, the activity of the preparations is rated visually in comparison to untreated controls (herbicidal activity in percent (%): 100% activity=the plants have died, 0% activity=like control plants).

[9] = tested on: Lolium multiflorum; experiment: Pre-emergence herbicidal effect; conditions: 1280 g/ha, visual assessment after 3 weeks
Text: as §1, with “LOLMU: Lolium multiflorum MATIN: Matricaria inodora” for “ABUTH: Abutilon theophrasti ALOMY: Alopecurus myosuroides”

[10] = tested on: Matricaria inodora; experiment: Pre-emergence herbicidal effect; conditions: 1280 g/ha, visual assessment after 3 weeks
Text: as §1, with “LOLMU: Lolium multiflorum MATIN: Matricaria inodora” for “ABUTH: Abutilon theophrasti ALOMY: Alopecurus myosuroides”

[11] = tested on: Polygonum convolvulus; experiment: Post-emergence herbicidal effect; conditions: 1280 g/ha, visual rating after about 3 weeks
Description: as §2, with “POLCO: Polygonum convolvulus SETVI: Setaria viridis” for “ABUTH: Abutilon theophrasti ALOMY: Alopecurus myosuroides”

Compound | herbicidal activity ABUTH [1] | herbicidal activity ALOMY [2] | herbicidal activity STEME [3] | herbicidal activity VERPE [4] | herbicidal activity VIOTR [5] | herbicidal activity AMARE [6] | herbicidal activity ECHCG [7] | herbicidal activity ABUTH [8] | herbicidal activity LOLMU [9] | herbicidal activity MATIN [10] | herbicidal activity POLCO [11]
CCc1ccc2c(c1)C(Nc1cnc(S(C)(=O)=O)nc1)CCO2 (racemic) [compound 65] | 100% | 90% | 100% | 100% | 100% | 100% | 100% | 90% | 90% | 100% | 80%
CCc1ccc2c(c1)C(Nc1cnc(S(C)(=O)=O)nc1C(=O)O)CCO2 (racemic) [compound 68] | 100% | 100% | 100% | 100% | 100% | 100% | 100% | 90% | 90% | 100% | 80%
Cc1ccc2c(c1)[C@H](Nc1cnc(S(C)(=O)=O)nc1)[C@@H](C)C2 [compound 134] | 100% | 100% | 100% | 100% | 100% | 100% | 100% | 90% | 100% | 100% | 90%
